# Measurements as given in patent publication US20220249576A1 (priority 2021, published 2022).
# Tests used:
# [1] = tested on: Aspergillus endosomal development; conditions: previously observed; cited from earlier work
# A. flavus = assay type: cell-based, Aspergillus flavus
structure (smiles),measurement,setting,value
CCCCC[C@@H](O)[C@H]1C(=O)O[C@H](C)[C@@H](O)/C=C/C=C/C=C/C=C/C=C(\C)[C@@H](O)C[C@H](O)C[C@H](O)C[C@H](O)C[C@H](O)C[C@H](O)C[C@@H]1O [filipin],minimal inhibitory concentration (MIC) for disruption of Aspergillus endosomal development,[1],3 µM
C[C@@H]1C/C=C/C=C/C=C/C=C/[C@H](O[C@@H]2O[C@H](C)[C@@H](O)[C@H](N)[C@@H]2O)C[C@@H]2O[C@](O)(C[C@@H](O)C[C@H]3O[C@@H]3/C=C/C(=O)O1)C[C@H](O)[C@H]2C(=O)O [natamycin],minimal inhibitory concentration (MIC) for disruption of Aspergillus endosomal development,[1],6 µM
same,aflatoxin levels compared to the filipin treated samples,A. flavus,significantly greater increase
same,aflatoxin production compared to untreated control (A. flavus + the exemplary composition),A. flavus,increase aflatoxin production
